Experimental data published in article PMC12668308, “A Novel Antimalarial Agent that Inhibits Protein Synthesis in Plasmodium falciparum” (Angewandte Chemie (International Ed. in English), 2025).

What was measured:
Test in all cases: iSPP profiling, P. falciparum lysate
Type in all cases: binding, Plasmodium falciparum
[1] = system: Ribosome associated membrane protein RAMP4 (W7KMX9); settings: 100 µM compound 34
Protocol: (§1) P. falciparum NF54 lysates were extracted as described in ^[26^] . The parasite asynchronous culture was extracted once 3-5% parasitemia was reached. Saponin lysis was done as described in 2.2.10. Once the parasite pellet was obtained, 2.5 volumes of ice-cold lysis buffer (50 mM Tris/HCl pH 7.5 (Avantor), 5% glycerol (Sigma-Aldrich), 150 mM NaCl (Carl Roth), 1.5 mM MgCl2 (Sigma-Aldrich), 1 mM DTT (Carl Roth), 0.8% IGEPAL CA-630 (Sigma-Aldrich), 1X Halt Protease and Phosphatase Inhibitor-Cocktails EDTA-free (Thermo Fisher Scientific)) was added to the parasite pellet. The lysate solution was subjected to three cycles of flash freeze-thaw with liquid nitrogen and ddH2O at RT. The lysates were centrifuged at 20,000 g for 20 minutes at 4 °C. The soluble protein fraction (supernatant) was collected and the protein content was quantified using the BCA assay (Pierce™ BCA Protein Assay Kit, Thermo Fisher Scientific). The lysate was stored at -80 °C until further use.
(§2) The P. falciparum lysate was thawed on ice and diluted to 0.8 mg/mL. The lysate was aliquoted, and each aliquot was incubated with either a vehicle control (DMSO), 34 (dissolved in DMSO), or varying concentrations of 31 (dissolved in DMSO) at 0.01 µM, 0.1 µM, 10 µM, 50 µM, and 100 µM. Subsequently, the samples were incubated at room temperature for 30 minutes using a rotating mixer. After distribution into a 96-well plate, the samples were treated with increasing concentrations of A.E.A. (v/v) ranging from 14% to 28% (14, 16, 18, 20, 22, 24, 26, and 28%). Following a 20-minute incubation at 37°C with shaking at 750 rpm, the samples were centrifuged at 4400 g for 35 minutes to remove precipitated proteins. The soluble fractions were then pooled in equal volumes into a single sample using the Bravo Automated Liquid Handling Platform. The pooled samples were subsequently prepared for LC-MS/MS analysis.
(§3) The raw LFQ-DIA intensity values of biological replicates across all conditions were normalized to the median abundance using Excel. The normalized values were then log2 transformed in Perseus (v2.0.10.0).^[58^] Missing values were imputed from a normal distribution (width 0.3, down shift 1.5), and p-values were obtained using a two-sample t-test over replicates with a permutation-based false discovery rate correction (FDR 0.05). Volcano plots were generated in RStudio using the EnhancedVolcano package (v. 1.20.0), ^[59^] plotting proteins by statistical significance (y-axis: –Log10 p-value) versus the magnitude of change (x-axis: log2 fold change of protein intensities for each compound condition relative to the vehicle control). The heatmap was generated in Perseus (v2.0.10.0). Dose-dependent curves were generated using normalized protein intensity values, expressed as a ratio to the vehicle control. Plots were created in GraphPad Prism (v8.3.0) using a nonlinear regression model.

[2] = system: Sugar phosphate phosphatase (W7K268); settings: 100 µM compound 34
Protocol: as §1, §2, §3

[3] = system: Dual specificity protein phosphatase (W7KAW5); settings: 100 µM compound 34
Protocol: as §1, §2, §3

[4] = system: Uncharacterized protein (W7JZL0); settings: 100 µM compound 34
Protocol: as §1, §2, §3

[5] = system: 2-C-methyl-D-erythritol 4-phosphate cytidylyltransferase (W7KNE8); settings: 100 µM compound 34
Protocol: as §1, §2, §3

[6] = system: Pre-mRNA-splicing factor BUD31 (W7K941); settings: 100 µM compound 34
Protocol: as §1, §2, §3

[7] = system: Dihydrolipoyl dehydrogenase (W7JVD0); settings: 100 µM compound 34
Protocol: as §1, §2, §3

[8] = system: DNA repair and recombination protein RAD54 (W7K6H8); settings: 100 µM compound 34
Protocol: as §1, §2, §3

[9] = system: RRM domain-containing protein (W7KAG3); settings: 100 µM compound 34
Protocol: as §1, §2, §3

[10] = system: Ubiquitin-like protein nedd8-like (W7JPX7); settings: 100 µM compound 34
Protocol: as §1, §2, §3

[11] = system: Protein RFT1 homolog (W7JM37); settings: 100 µM compound 34
Protocol: as §1, §2, §3

[12] = system: Uncharacterized protein (W7KAK7); settings: 100 µM compound 34
Protocol: as §1, §2, §3

[13] = system: SPATR (W7KAV2); settings: 100 µM compound 34
Protocol: as §1, §2, §3

[14] = system: Antigen UB05 (W7JRY1); settings: 100 µM compound 34
Protocol: as §1, §2, §3

[15] = system: PCI domain-containing protein (W7JUC8); settings: 100 µM compound 34
Protocol: as §1, §2, §3

[16] = system: Uncharacterized protein (W7KFE6); settings: 100 µM compound 34
Protocol: as §1, §2, §3

[17] = system: Stevor (W7K9U2); settings: 100 µM compound 34
Protocol: as §1, §2, §3

[18] = system: Uncharacterized protein (W7K0G9); settings: 100 µM compound 34
Protocol: as §1, §2, §3

[19] = system: Uncharacterized protein (W7KBT1); settings: 100 µM compound 34
Protocol: as §1, §2, §3

[20] = system: Small nuclear ribonucleoprotein Sm D1 (W7K576); settings: 100 µM compound 34
Protocol: as §1, §2, §3

[21] = system: Pre-mRNA branch site protein p14 (Fragment) (W7JRR7); settings: 100 µM compound 34
Protocol: as §1, §2, §3

[22] = system: Uncharacterized protein (W7KDE4); settings: 100 µM compound 34
Protocol: as §1, §2, §3

[23] = system: Uncharacterized protein (W7KMZ2); settings: 100 µM compound 34
Protocol: as §1, §2, §3

[24] = system: WD repeat-containing protein 82 (W7K1H5); settings: 100 µM compound 34
Protocol: as §1, §2, §3

[25] = system: Erythrocyte membrane protein 1 (W7JQ66;W7K7Z8;W7KA08;W7KI56;W7KJ57); settings: 100 µM compound 34
Protocol: as §1, §2, §3

[26] = system: Uncharacterized protein (W7JQ86)
Protocol: as §1, §2, §3

O=C(Nc1cc(CN2CCOCC2)ccc1F)c1cccc(Oc2cc(C(F)(F)F)ccn2)c1 [Compound 34, N-(2-Fluoro-5-(morpholinomethyl)phenyl)-3-((4-(trifluoromethyl)pyridin-2-yl)oxy)benzamide]
log2FC [1]: 0.4453 | log2FC [2]: -0.3813 | log2FC [3]: -0.5678 | log2FC [4]: -1.173 | log2FC [5]: -1.336 | log2FC [6]: 0.5199 | log2FC [7]: 0.3119 | log2FC [8]: -0.7564 | log2FC [9]: 0.4449 | log2FC [10]: 0.3658 | log2FC [11]: -0.6689 | log2FC [12]: -0.4093 | log2FC [13]: 0.3835 | log2FC [14]: 0.5651 | log2FC [15]: -0.3885 | log2FC [16]: 0.3535 | log2FC [17]: 0.3642 | log2FC [18]: -0.3881 | log2FC [19]: 0.318 | log2FC [20]: 0.401 | log2FC [21]: 0.3601 | log2FC [22]: 0.5097 | log2FC [23]: 0.3762 | log2FC [24]: -0.6516 | log2FC [25]: 0.3804

CN1CCN(Cc2ccc(O)c(NC(=O)c3cccc(Oc4cc(C(F)(F)F)ccn4)c3)c2)CC1 [Compound 31, N-(2-hydroxy-5-((4-methylpiperazin-1-yl)methyl)phenyl)-3-((4-(trifluoromethyl)pyridin-2-yl)oxy)benzamide]
log2FC ([26]; 10 µM): 0.49 | log2FC ([26]; 50 µM): 0.58 | log2FC ([26]; 100 µM): 0.37 | log2FC ([26]; 10^-2 µM): 0.40 | log2FC ([26]; 10^-3 µM): 0.28
